Values of other authors, collected in paper PMC7395068, “The evolution of strategies to minimise the risk of human drug-induced liver injury (DILI) in drug discovery and development” (Archives of Toxicology, 2020).
Read-outs that look alike come from different tables or passages of the source. Where a SMILES comes first, the peptide text is derived from it. Bridges are numbered along the chain shown (N, C = ends). [ ]: non-standard residue; d: D form. hArg = N=C(N)NCCCC[C@H](N)C(=O)O; Mpa = O=C(O)CCS

Conditions: cited from earlier work
[1] = binary in vivo human DILI call, ref Chen 2016
[2] = human DILI, LTKB DILIrank category, ref Chen 2016

| SMILES | DILI +VE (5-8), DILI -VE (-4) [1] | DILI severity category [2] | DILI +VE (5-8), DILI -VE (-4) (in vivo) | DILI severity category (in vivo) |
| --- | --- | --- | --- | --- |
| OCC(S)CS (stereo not drawn) [dimercaprol] | -VE | vNo-DILI-Concern | – | – |
| CCOC(=O)C1(c2ccccc2)CCN(CCC(C#N)(c2ccccc2)c2ccccc2)CC1 [diphenoxylate] | -VE | vNo-DILI-Concern | – | – |
| CC(C)N(CCC(C(N)=O)(c1ccccc1)c1ccccn1)C(C)C (stereo not drawn) [disopyramide] | +VE | vLess-DILI-Concern | – | – |
| CCN1CC(CCN2CCOCC2)C(c2ccccc2)(c2ccccc2)C1=O (stereo not drawn) [doxapram] | -VE | vNo-DILI-Concern | – | – |
| CN(C)CCC=C1c2ccccc2COc2ccccc21 [doxepin] | +VE | vLess-DILI-Concern | – | – |
| C=C1/C(=C\C=C2/CCC[C@]3(C)[C@@H]([C@H](C)/C=C/[C@H](C)C(C)C)CC[C@@H]23)C[C@@H](O)C[C@@H]1O [doxercalciferol] | -VE | Ambiguous DILI-concern | – | – |
| CCCCc1oc2ccc(NS(C)(=O)=O)cc2c1C(=O)c1ccc(OCCCN(CCCC)CCCC)cc1 [dronedarone] | +VE | vMost-DILI-Concern | – | – |
| CNCC[C@H](Oc1cccc2ccccc12)c1cccs1 [duloxetine] | – | – | +VE | vMost-DILI-Concern |
| C[C@]12C=CC(=O)N[C@@H]1CC[C@@H]1[C@@H]2CC[C@]2(C)[C@@H](C(=O)Nc3cc(C(F)(F)F)ccc3C(F)(F)F)CC[C@@H]12 [dutasteride] | -VE | vNo-DILI-Concern | – | – |
| O=C(O)CN(CCN(CC(=O)O)CC(=O)O)CC(=O)O [edetic acid] | – | – | -VE | Ambiguous DILI-concern |
| CN1CCC[C@@H]1Cc1c[nH]c2ccc(CCS(=O)(=O)c3ccccc3)cc12 [eletriptan] | -VE | Ambiguous DILI-concern | – | – |
| CC1=NN(c2ccc(C)c(C)c2)C(=O)/C1=N\Nc1cccc(-c2cccc(C(=O)O)c2)c1O [eltrombopag olamine] | +VE | vMost-DILI-Concern | – | – |
| Nc1nc(=O)n([C@@H]2CS[C@H](CO)O2)cc1F [emtricitabine] | -VE | Ambiguous DILI-concern | – | – |
| CN[C@@H](C)[C@H](O)c1ccccc1 [ephedrine] | – | – | -VE | vNo-DILI-Concern |
| CNC[C@H](O)c1ccc(O)c(O)c1 [epinephrine] | -VE | vNo-DILI-Concern | – | – |
| COc1cccc2c1C(=O)c1c(O)c3c(c(O)c1C2=O)C[C@@](O)(C(=O)CO)C[C@@H]3O[C@H]1C[C@H](N)[C@@H](O)[C@H](C)O1 [epirubicin] | -VE | Ambiguous DILI-concern | – | – |
| COC(=O)[C@@H]1CC2=CC(=O)CC[C@]2(C)[C@@]23O[C@@H]2C[C@@]2(C)[C@@H](CC[C@@]24CCC(=O)O4)[C@H]13 [eplerenone] | -VE | Ambiguous DILI-concern | – | – |
| CCCCC[C@H](O)/C=C/[C@@H]1[C@H]2C/C(=C/CCCC(=O)O)O[C@H]2C[C@H]1O [epoprostenol] | -VE | Ambiguous DILI-concern | – | – |
| CCCCc1ncc(/C=C(\Cc2cccs2)C(=O)O)n1Cc1ccc(C(=O)O)cc1 [eprosartan] | -VE | Ambiguous DILI-concern | – | – |
| N=C(N)NCCCC[C@@H]1NC(=O)CCSSC[C@@H](C(N)=O)NC(=O)[C@@H]2CCCN2C(=O)[C@H](Cc2c[nH]c3ccccc23)NC(=O)[C@H](CC(=O)O)NC(=O)CNC1=O [eptifibatide] ([Mpa][hArg]GDWPC-NH2; disulfide 1-7) | – | – | -VE | vNo-DILI-Concern |
| C[C@@H](O)[C@H]1C(=O)N2C(C(=O)O)=C(S[C@@H]3CN[C@H](C(=O)Nc4cccc(C(=O)O)c4)C3)[C@H](C)[C@H]12 [ertapenem] | -VE | Ambiguous DILI-concern | – | – |
| CN(C)CCC[C@@]1(c2ccc(F)cc2)OCc2cc(C#N)ccc21 [escitalopram] | – | – | +VE | vLess-DILI-Concern |
| COc1ccc2[n-]c([S@@+]([O-])Cc3ncc(C)c(OC)c3C)nc2c1.[Na+] [esomeprazole Sodium] | – | – | +VE | vLess-DILI-Concern |
| Clc1ccc2c(c1)C(c1ccccc1)=NCc1nncn1-2 [estazolam] | -VE | vNo-DILI-Concern | – | – |
| C[C@]12CC[C@@H]3c4ccc(OC(=O)N(CCCl)CCCl)cc4CC[C@H]3[C@@H]1CC[C@@H]2O [estramustine] | +VE | vMost-DILI-Concern | – | – |
| CN1CCN(C(=O)O[C@H]2c3nccnc3C(=O)N2c2ccc(Cl)cn2)CC1 [eszopiclone] | -VE | Ambiguous DILI-concern | – | – |

| SMILES | DILI +VE (5-8), DILI -VE (-4) [1] | DILI severity category [2] | DILI +VE (5-8), DILI -VE (-4) (in vivo) | DILI severity category (in vivo) |
| --- | --- | --- | --- | --- |
| CCCCCCCC/C=C\CCCCCCCC(=O)O.NCCO [ethanolamine oleate] | -VE | vNo-DILI-Concern | – | – |
| CCc1cc(C(N)=S)ccn1 [ethionamide] | +VE | vLess-DILI-Concern | – | – |
| CCC1(C)CC(=O)NC1=O (stereo not drawn) [ethosuximide] | -VE | Ambiguous DILI-concern | – | – |
| CCOC(=O)c1cncn1[C@H](C)c1ccccc1 [etomidate] | – | – | -VE | vNo-DILI-Concern |
| C#C[C@]1(O)CC[C@H]2[C@@H]3CCC4=CC(=O)CC[C@@H]4[C@H]3C(=C)C[C@@]21CC [etonogestrel] | -VE | Ambiguous DILI-concern | – | – |
| Cc1cc(C#N)cc(C)c1Oc1nc(Nc2ccc(C#N)cc2)nc(N)c1Br [etravirine] | +VE | vMost-DILI-Concern | – | – |
| CO[C@H]1C[C@@H]2CC[C@@H](C)[C@@](O)(O2)C(=O)C(=O)N2CCCC[C@H]2C(=O)O[C@H]([C@H](C)C[C@@H]2CC[C@@H](OCCO)[C@H](OC)C2)CC(=O)[C@H](C)/C=C(\C)[C@@H](O)[C@@H](OC)C(=O)[C@H](C)C[C@H](C)/C=C/C=C/C=C/1C [everolimus] | -VE | Ambiguous DILI-concern | – | – |
| C/C(=N\O)C(C)NCC(C)(C)CNC(C)/C(C)=N/O (stereo not drawn) [exametazime] | -VE | vNo-DILI-Concern | – | – |
| C=C1C[C@@H]2[C@H](CC[C@]3(C)C(=O)CC[C@@H]23)[C@@]2(C)C=CC(=O)C=C12 [exemestane] | +VE | vMost-DILI-Concern | – | – |
| O=C(c1cc(O)c(O)c(O)c1)c1ccc(O)c(O)c1O [exifone] | +VE | vMost-DILI-Concern | – | – |
| CN1CCC(Nc2ncc3ncnc(Nc4ccc(F)c(Cl)c4)c3n2)CC1 [falnidamol] | – | – | +VE | vMost-DILI-Concern |
| CC(=O)OCC(CCn1cnc2cnc(N)nc21)COC(C)=O [famciclovir] | -VE | Ambiguous DILI-concern | – | – |
| CC(C)(Oc1ccc(C(=O)c2ccc(Cl)cc2)cc1)C(=O)O [fenofibric acid] | -VE | Ambiguous DILI-concern | – | – |
| CC(C)C(=O)Oc1ccc(CO)cc1[C@H](CCN(C(C)C)C(C)C)c1ccccc1 [fesoterodine] | -VE | vNo-DILI-Concern | – | – |
| COc1cccc2c1[C@@H]1CN(CCCCn3c(=O)[nH]c4c(sc5ncc(-c6ccccc6)nc54)c3=O)C[C@@H]1CO2 [fiduxosin] | +VE | vMost-DILI-Concern | – | – |
| C[C@]12CCC(=O)C=C1CC[C@H]1[C@@H]3CC[C@](O)(C(=O)CO)[C@@]3(C)C[C@H](O)[C@@]12F [fludrocortisone] | -VE | vNo-DILI-Concern | – | – |
| O=C1OC2(c3ccc(O)cc3Oc3cc(O)ccc32)c2ccccc21 [fluorescein] | -VE | vNo-DILI-Concern | – | – |
| OCCN1CCN(CCCN2c3ccccc3Sc3ccc(C(F)(F)F)cc32)CC1 [fluphenazine] | -VE | Ambiguous DILI-concern | – | – |
| CCN(CC)CCN1C(=O)CN=C(c2ccccc2F)c2cc(Cl)ccc21 [flurazepam] | +VE | vLess-DILI-Concern | – | – |
| CO[C@H]1O[C@H](COS(=O)(=O)O)[C@@H](O[C@@H]2O[C@@H](C(=O)O)[C@@H](O[C@H]3O[C@H](COS(=O)(=O)O)[C@@H](O[C@@H]4O[C@H](C(=O)O)[C@@H](O[C@H]5O[C@H](COS(=O)(=O)O)[C@@H](O)[C@H](O)[C@H]5NS(=O)(=O)O)[C@H](O)[C@H]4O)[C@H](OS(=O)(=O)O)[C@H]3NS(=O)(=O)O)[C@H](O)[C@H]2OS(=O)(=O)O)[C@H](O)[C@H]1NS(=O)(=O)O [fondaparinux sodium] | +VE | vLess-DILI-Concern | – | – |
| CC(C)CN(C[C@@H](OP(=O)(O)O)[C@H](Cc1ccccc1)NC(=O)O[C@H]1CCOC1)S(=O)(=O)c1ccc(N)cc1 [fosamprenavir] | -VE | Ambiguous DILI-concern | – | – |
| C[C@@H](O[C@H]1OCCN(Cc2nc(O)n(P(=O)(O)O)n2)[C@H]1c1ccc(F)cc1)c1cc(C(F)(F)F)cc(C(F)(F)F)c1 [fosaprepitant] | -VE | Ambiguous DILI-concern | – | – |
| C[C@@H]1O[C@@H]1P(=O)(O)O [fosfomycin] | +VE | vLess-DILI-Concern | – | – |
| CCC(=O)O[C@@H](O[P@](=O)(CCCCc1ccccc1)CC(=O)N1C[C@H](C2CCCCC2)C[C@H]1C(=O)O)C(C)C [fosinopril] | +VE | vLess-DILI-Concern | – | – |
| O=C1NC(c2ccccc2)(c2ccccc2)C(=O)N1COP(=O)(O)O [fosphenytoin] | +VE | vMost-DILI-Concern | – | – |
